Source: patent US20200131156A1, “ARYLSULFONYLPYROLECARBOXAMIDE DERIVATIVES AS Kv3 POTASSIUM CHANNEL ACTIVATORS” (H. Lundbeck A/S, priority 2018, published 2020)

Molecular target: T1, hKv3.1b (Homo sapiens, UniProt P48547)
T1 construct: expressed in transfected cells
T1 sequence (P48547 1-585 isoform P48547-2): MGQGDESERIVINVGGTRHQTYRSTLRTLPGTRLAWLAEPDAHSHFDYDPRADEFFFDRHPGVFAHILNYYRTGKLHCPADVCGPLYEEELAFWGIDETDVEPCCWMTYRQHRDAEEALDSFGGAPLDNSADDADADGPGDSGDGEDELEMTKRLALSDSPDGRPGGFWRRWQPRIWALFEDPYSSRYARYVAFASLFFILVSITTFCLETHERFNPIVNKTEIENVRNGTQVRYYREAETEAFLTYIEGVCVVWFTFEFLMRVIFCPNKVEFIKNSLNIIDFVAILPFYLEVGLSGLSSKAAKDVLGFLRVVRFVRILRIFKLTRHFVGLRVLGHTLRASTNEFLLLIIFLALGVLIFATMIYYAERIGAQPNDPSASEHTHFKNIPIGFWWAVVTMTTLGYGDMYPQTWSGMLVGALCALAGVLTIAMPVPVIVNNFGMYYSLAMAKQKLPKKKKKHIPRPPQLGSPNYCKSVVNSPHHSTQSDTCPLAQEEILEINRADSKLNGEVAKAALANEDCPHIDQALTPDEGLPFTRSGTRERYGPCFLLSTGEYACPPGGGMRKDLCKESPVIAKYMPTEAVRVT
Test: Automated patch clamp (QPatch-16x) on HEK-293 cells stably expressing hKv3.1b
Format: cell-based
Settings: for ECdelta5 mV: concentration needed to shift the activation threshold 5 mV; for Threshold Shift: maximum absolute hyperpolarizing shift of activation threshold at tested concentrations 0.37-30 μM
Method: HEK-293 cells stably expressing hKv3.1b were used for the experiments. Cells were cultured in DMEM medium supplemented with 10% Fetal Bovine Serum, 100 ug/mL Geneticidin and 100 u/mL Penicillin/Streptomycin (all from Gibco). Cells were grown to 80-90% confluency at 37° C. and 5% CO2. On the day of the experiment the cells were detached from the tissue culture flasks by Detachin, resuspended in serum free medium containing 25 mM HEPES and transferred to the cell hotel of the QPatch. The cells were used for experiments 0-5 hours after detachment.
Patch-clamp recordings were performed using the automated recording system QPatch-16x (Sophion Bioscience, Denmark). Cells were centrifuged, SFM removed and the cells were resuspended in extracellular buffer containing (in mM): 145 NaCl, 4 KCl, 1 MgCl2, 2 CaCl2, 10 HEPES and 10 glucose (added fresh on the day of experiment); pH 7.4 adjusted with NaOH, 305 mOsm adjusted with sucrose.
Single cell whole-cell recordings were carried out using an intracellular solution containing (in mM): 120 KCl, 32.25/10 KOH/EGTA, 5.374 CaCl2, 1.75 MgCl2, 10 HEPES, 4 Na2ATP (added fresh on the day), pH 7.2 adjusted with KOH, […] adjusted with sucrose. Cell membrane potentials were held at −80 mV and currents were evoked by voltage steps (200 ms duration) from −70 mV to +10 mV (in 10 mV increments). Vehicle (0.33% DMSO) or increasing concentration of compound (I) were applied and the voltage protocol was run 3 times (resulting in 3 min cpd incubation time). Five increasing concentrations of compound (I) were applied to each cell.
Leak subtraction protocol was applied at −33% of the sweep amplitude, and serial resistance values were constantly monitored.
Any cell where serial resistance exceeded 25 MOhm, membrane resistance less than 200 MOhm or current size at −10 mV less than 200 pA was eliminated from the subsequent analysis.
Data analysis was performed using Sophion's QPatch assay software in combination with Microsoft Excel™ (Redmond, Wash., USA). Current voltage relationships were plotted from the peak current at the individual voltage steps normalized to the vehicle addition at 10 mV. The voltage threshold for channel activation was defined as 5% activation of the peak current at 10 mV in presence of vehicle. The activity of the compounds was described as the ability to shift this current voltage relationship to more hyperpolarized potentials and is given as the maximum absolute shift possible at the tested concentrations (0.37, 1.11, 3.33, 10, 30 μM). Concentration response curves were plotted from the threshold shift at the individual concentrations and were fitted excel fit model 205 sigmoidal dose-response model (fit=A+((B−A)/1+((C/x)^D)))), where A is the minimum value, B the maximum value, C the EC50 value and D the slope of the curve. The concentration needed to shift the threshold 5 mV was readout from this curve (ECdelta5 mV).

Row | Compound | ECdelta5 mV [nM] | Threshold Shift [mV]
1 | Cc1cnc(CNC(=O)c2ccn(S(=O)(=O)c3ccc(C(F)(F)F)cc3)c2)cn1 [Compound 91, N-[(5-methylpyrazin-2-yl)methyl]-1-[4-(trifluoromethyl)benzene-1-sulfonyl]-1H-pyrrole-3-carboxamide] | 1800 | 20
2 | Cc1ccc(S(=O)(=O)n2ccc(C(=O)NCc3cc(C)n[nH]3)c2)cc1 [Compound 116, 1-(4-methylbenzene-1-sulfonyl)-N-[(3-methyl-1H-pyrazol-5-yl)methyl]-1H-pyrrole-3-carboxamide] | 2600 | 25
3 | Cc1ccc(S(=O)(=O)n2ccc(C(=O)NCc3cnn(C)n3)c2)cc1 [Compound 109, 1-(4-methylbenzene-1-sulfonyl)-N-[(2-methyl-2H-1,2,3-triazol-4-yl)methyl]-1H-pyrrole-3-carboxamide] | 1200 | 29
4 | Cc1ccc(S(=O)(=O)n2cc(C(=O)NCc3cnc(C)cn3)cc2F)cc1 [Compound 87, 5-fluoro-1-(4-methylbenzene-1-sulfonyl)-N-[(5-methylpyrazin-2-yl)methyl]-1H-pyrrole-3-carboxamide] | 4000 | 15
5 | Cn1ccc(CNC(=O)c2ccn(S(=O)(=O)c3ccc(F)cc3)c2)n1 [Compound 63, 1-(4-fluorobenzene-1-sulfonyl)-N-[(1-methyl-1H-pyrazol-3-yl)methyl]-1H-pyrrole-3-carboxamide] | 2200 | 13
6 | Cc1ccc(S(=O)(=O)n2ccc(C(=O)NCc3ncc(C)s3)c2)cc1 [Compound 39, N-[(5-methylthiazol-2-yl)methyl]-1-(p-tolylsulfonyl)pyrrole-3-carboxamide] | 1600 | 17
7 | Cc1ccc(S(=O)(=O)n2ccc(C(=O)NCc3cnc(C)nc3)c2)cc1 [Compound 2, N-[(2-methylpyrimidin-5-yl)methyl]-1-(p-tolylsulfonyl)pyrrole-3-carboxamide] | 750 | 40
8 | Cc1cnc(CNC(=O)c2ccn(S(=O)(=O)c3cc(C)c(F)c(C)c3)c2)cn1 [Compound 100, 1-(4-fluoro-3,5-dimethyl-phenyl)sulfonyl-N-[(5-methylpyrazin-2-yl)methyl]pyrrole-3-carboxamide] | 4300 | 15
9 | Cc1cnc(CNC(=O)c2ccn(S(=O)(=O)c3ccc(F)c(Cl)c3)c2)cn1 [Compound 92, 1-(3-chloro-4-fluorobenzene-1-sulfonyl)-N-[(5-methylpyrazin-2-yl)methyl]-1H-pyrrole-3-carboxamide] | 3400 | 12
10 | COc1ccc(S(=O)(=O)n2ccc(C(=O)NCc3cnccn3)c2)cc1 [Compound 67, 1-(4-methoxybenzene-1-sulfonyl)-N-[(pyrazin-2-yl)methyl]-1H-pyrrole-3-carboxamide] | 2200 | 23
11 | Cc1ccc(S(=O)(=O)n2ccc(C(=O)NCc3ccon3)c2)cc1 [Compound 52, 1-(4-methylbenzene-1-sulfonyl)-N-[(1,2-oxazol-3-yl)methyl]-1H-pyrrole-3-carboxamide] | 2500 | 13
12 | COc1ccc(S(=O)(=O)n2ccc(C(=O)NCc3nc(C)no3)c2)cc1 [Compound 68, 1-(4-methoxybenzene-1-sulfonyl)-N-[(3-methyl-1,2,4-oxadiazol-5-yl)methyl]-1H-pyrrole-3-carboxamide] | 2300 | 21
13 | Cc1ccc(S(=O)(=O)n2ccc(C(=O)NCc3cocn3)c2)cc1 [Compound 54, 1-(4-methylbenzene-1-sulfonyl)-N-[(1,3-oxazol-4-yl)methyl]-1H-pyrrole-3-carboxamide] | 2000 | 15
14 | Cc1ccc(S(=O)(=O)n2ccc(C(=O)NCc3nnc(C)o3)c2)cc1 [Compound 31, N-[(5-methyl-1,3,4-oxadiazol-2-yl)methyl]-1-(p-tolylsulfonyl)pyrrole-3-carboxamide] | 9600 | 13
15 | COc1ccc(S(=O)(=O)n2ccc(C(=O)NCc3ccn(C)n3)c2)c(Cl)c1 [Compound 117, 1-(2-chloro-4-methoxybenzene-1-sulfonyl)-N-[(1-methyl-1H-pyrazol-3-yl)methyl]-1H-pyrrole-3-carboxamide] | 1500 | 21
16 | Cc1ccc(S(=O)(=O)n2ccc(C(=O)NCc3cnsc3)c2)cc1 [Compound 55, 1-(4-methylbenzene-1-sulfonyl)-N-[(1,2-thiazol-4-yl)methyl]-1H-pyrrole-3-carboxamide] | 1500 | 15
17 | Cc1ccc(S(=O)(=O)n2cc(C)c(C(=O)NCc3cnc(C)cn3)c2)cc1 [Compound 8, 4-methyl-N-[(5-methylpyrazin-2-yl)methyl]-1-(p-tolylsulfonyl)pyrrole-3-carboxamide] | 4000 | 12
18 | Cc1ccc(S(=O)(=O)n2ccc(C(=O)NCc3ncccc3F)c2)cc1 [Compound 11, N-[(3-fluoro-2-pyridyl)methyl]-1-(p-tolylsulfonyl) pyrrole-3-carboxamide] | 1300 | 16
19 | Cc1ccc(S(=O)(=O)n2ccc(C(=S)NCc3cnc(C)cn3)c2)cc1 [Compound 94, 1-(4-methylbenzene-1-sulfonyl)-N-[(5-methylpyrazin-2-yl)methyl]-1H-pyrrole-3-carbothioamide] | 1100 | 19
20 | COc1ccc(S(=O)(=O)n2ccc(C(=O)NCc3cnc(C)cn3)c2)c(F)c1 [Compound 96, 1-(2-fluoro-4-methoxy-phenyl)sulfonyl-N-[(5-methylpyrazin-2-yl)methyl]pyrrole-3-carboxamide] | 1300 | 35
21 | Cc1ccc(CNC(=O)c2ccn(S(=O)(=O)c3ccccc3C)c2)nc1 [Compound 77, 1-(2-methylbenzene-1-sulfonyl)-N-[(5-methylpyridin-2-yl)methyl]-1H-pyrrole-3-carboxamide] | 3300 | 12
22 | Cc1cccc(S(=O)(=O)n2ccc(C(=O)NCc3nc(C)no3)c2)c1 [Compound 61, 1-(3-methylbenzene-1-sulfonyl)-N-[(3-methyl-1,2,4-oxadiazol-5-yl)methyl]-1H-pyrrole-3-carboxamide] | 5900 | 12
23 | COc1ccc(S(=O)(=O)n2ccc(C(=O)NCc3cnc(C)cn3)c2)c(C)c1 [Compound 98, 1-(4-methoxy-2-methyl-phenyl)sulfonyl-N-[(5-methylpyrazin-2-yl)methyl]pyrrole-3-carboxamide] | 710 | 36
